Measurements as given in the supplement of paper PMC10307832.

Key:
Test in all cases: relative viability (nuclei count vs DMSO), 5 days (fraction); higher = more cells survive
[1] = compound: CC1=CC(=CC=C1)NC2=NC(=CS2)C3=CC=NC=C3 + CC(C)C[C@H](NC(=O)[C@H](Cc1ccccc1)NC(=O)c1cnccn1)B(O)O [Bortezomib] (partner 0.002 µM)
Procedure, shortened: (§1)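 Relative viability equals treated-well nuclei counts divided by vehicle-well nuclei counts. Counts came from 4× images of lung cancer cell lines grown in 1536-well plates for 5 days after pin-tool dosing on the day after seeding. Dosing used one drug alone or a fixed anchor-drug dose plus five library-drug doses (not always all listed) in √10 steps, and values are medians of duplicate plates.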

[2] = compound: CC1=CC(=CC=C1)NC2=NC(=CS2)C3=CC=NC=C3 + CCNC(=O)c1noc(-c2cc(C(C)C)c(O)cc2O)c1-c1ccc(CN2CCOCC2)cc1 [Luminespib] (partner 0.01 µM)
Procedure, shortened: as §1

[3] = compound: CC1=CC(=CC=C1)NC2=NC(=CS2)C3=CC=NC=C3 + O=C(c1cc(Cc2n[nH]c(=O)c3ccccc23)ccc1F)N1CCN(C(=O)C2CC2)CC1 [Olaparib] (partner 8 µM)
Procedure, shortened: as §1

Masitinib + Crizotinib = compound: Cc1ccc(NC(=O)c2ccc(CN3CCN(C)CC3)cc2)cc1Nc1nc(-c2cccnc2)cs1 [Masitinib] + C[C@@H](Oc1cc(-c2cnn(C3CCNCC3)c2)cnc1N)c1c(Cl)ccc(F)c1Cl [Crizotinib] (partner 1 µM)
Procedure, shortened: as §1

## UMC-11
[1]; first compound 0.08 µM
  relative viability: 0.761
[1]; first compound 0.253 µM
  relative viability: 0.839
[1]; first compound 0.8 µM
  relative viability: 0.635
[1]; first compound 2.53 µM
  relative viability: 0.67
[1]; first compound 8 µM
  relative viability: 0.686
[2]; first compound 0.08 µM
  relative viability: 1.01
[2]; first compound 0.253 µM
  relative viability: 1.05
[2]; first compound 0.8 µM
  relative viability: 1.06
[2]; first compound 2.53 µM
  relative viability: 1.07
[2]; first compound 8 µM
  relative viability: 1.09
[3]; first compound 0.08 µM
  relative viability: 0.339
[3]; first compound 0.253 µM
  relative viability: 0.386
[3]; first compound 0.8 µM
  relative viability: 0.381
[3]; first compound 2.53 µM
  relative viability: 0.806
[3]; first compound 8 µM
  relative viability: 0.402
Masitinib + Crizotinib; first compound 0.01 µM
  relative viability: 0.467
Masitinib + Crizotinib; first compound 0.03162 µM
  relative viability: 0.677
Masitinib + Crizotinib; first compound 0.1 µM
  relative viability: 0.706
Masitinib + Crizotinib; first compound 0.3162 µM
  relative viability: 0.571
Masitinib + Crizotinib; first compound 1 µM
  relative viability: 0.691
